According to patent US9714250B2, “Crystalline forms of temozolomide and the method for preparing same” (Jiangsu Tasly Diyi Pharmaceutical Co., Ltd., priority 2013, dated 2017):

Experiment: Accelerated test (stability)
Type: physicochemical
Conditions: 40±2° C., relative humidity 75±5%; for Stability in the accelerated test (conclusion): 6 months; for Appearance and color / Content / Related substances: polyethylene film bag; for Related substances: HPLC
Method: In the following test, related substances were determined as follows: HPLC method was used and chromatographic conditions were as follows: C18 column using octadecylsilane bonded silica gel as the filler, isocratic elution using methanol: 0.5% glacial acetic acid solution (10:90) as the mobile phase, and detection wavelength was at 254 nm.
Crystalline Form A of Temozolomide (Form A0 prepared by the method of EXAMPLE 1) was sealed by a polyethylene film bag, placed under conditions of 40±2° C. and a relative humidity of 75±5% for 6 months, sampled and determined at the end of the 1st,2nd, 3rd and 6th month.
Crystalline Form B of Temozolomide (Form B0 prepared by the method of EXAMPLE 6) was sealed with a polyethylene film bag and placed under conditions of 40±2° C. and a relative humidity of 75±5% for 6 months, sampled and determined at the end of the 1st, 2nd, 3rd and 6th month.
Crystalline Form C of Temozolomide (Form C prepared by the method of EXAMPLE 14) was sealed with a polyethylene film bag and placed under conditions of 40±2° C. and a relative humidity of 75±5% for 6 months, sampled and determined at the end of the 1st, 2nd, 3rd and 6th month.

Row | Stability in the accelerated test (conclusion) | Appearance and color (0th month) | Content (0th month) [%] | Related substances (0th month) | Appearance and color (1st month) | Content (1st month) [%] | Related substances (1st month) | Appearance and color (2nd month) | Content (2nd month) [%] | Related substances (2nd month) | Appearance and color (3rd month) | Content (3rd month) [%] | Related substances (3rd month) | Appearance and color (6th month) | Content (6th month) [%] | Related substances (6th month) | Compound
1 | stable | White powder | 99.94 | Not detected | White powder | 99.81 | Not detected | White powder | 99.64 | Not detected | White powder | 99.92 | Not detected | White powder | 99.62 | Not detected | Cn1nnc2c(C(N)=O)ncn2c1=O [Form A, Temozolomide]
2 | stable | White powder | 99.91 | Not detected | White powder | 99.61 | Not detected | White powder | 99.87 | Not detected | White powder | 99.93 | Not detected | White powder | 99.65 | Not detected | Cn1nnc2c(C(N)=O)ncn2c1=O [Form C, Temozolomide]
3 | stable | White powder | 99.97 | Not detected | White powder | 99.71 | Not detected | White powder | 99.82 | Not detected | White powder | 99.73 | Not detected | White powder | 99.85 | Not detected | Cn1nnc2c(C(N)=O)ncn2c1=O [Form B, Temozolomide]
